Laboratory results as given in patent US20260265305A1, “POLYPEPTIDE DERIVATIVE FOR ORAL DELIVERY” (Hangzhou Sciwind Biosciences Co., Ltd., priority 2023, published 2026).
Read-outs that look alike come from different tables or passages of the source. Numbered stars: 1 amine (or outer) side, 2 acyl side, 3 side chain; on linkers, the order of the positions; unused ones are H or OH. Bridge positions count the residues as written; N and C are the ends. Square brackets hold non-standard residues; d marks the D form. Peptide text beside a SMILES is read from it. * marks the point of attachment. C20 diacid = O=C(O)CCCCCCCCCCCCCCCCCCC(=O)*; βAsp = O=C(O)[C@H](CC(=O)[*:2])N[*:1]; Hyp = O=C(O)[C@@H]1C[C@@H](O)CN1; Trx = NC[C@H]1CC[C@H](C(=O)O)CC1; AEEA = NCCOCCOCC(=O)O; Inp = O=C(O)C1CCNCC1

Key:
[1] = Efficacy assay in SD rats, dose-dependent study, single subcutaneous dose; format: in vivo; conditions: Table 9
Source text: […] Food intake was the amount of food consumed by each of the animals per day.

[2] = Heat accelerated stability assay of polypeptide solutions (40° C., pH about 7.4), reversed phase chromatography; format: physicochemical; conditions: for Purity change on 7 d / Purity change on 26 d: reversed phase chromatography 214 nm; for Purity change on 7 d: purity on 7 d − purity on 0 d; for Concentration change on 26 d / Purity change on 26 d: Day 26; for Purity change on 26 d: purity on 26 d − purity on 0 d
In short: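 Polypeptide derivative lyophilisate (1 mg/mL) with sodium dihydrogen phosphate (1.42 mg/mL) in water, pH about 7.4, sterile-filtered, vialed and held at 40° C; sampled on days 7 and 26. After centrifugation, concentration and purity (target/total peak area) by C18 RP-HPLC, TFA/ACN gradient, 280 and 214 nm.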

amylin receptor (hAMY3R) = target: T1, amylin receptor (hAMY3R) (Homo sapiens, UniProt O60896+P30988); test: Amylin receptor agonism testing, CRE-luciferase assay in stably transfected CHO-K1/Ga15/AMY3 cells; format: cell-based; conditions: for EC50: incubation of 24 hours, Table 3, read-out: EC50, activity against the amylin receptor in cells; for Fold change in activity against hAMY3R: relative to D1 as benchmark
T1 construct: host or cells: CHO-K1/Ga15/AMY3 cells, further stably transfected with a CRE-luciferase plasmid
T1 sequence (P30988 25-474): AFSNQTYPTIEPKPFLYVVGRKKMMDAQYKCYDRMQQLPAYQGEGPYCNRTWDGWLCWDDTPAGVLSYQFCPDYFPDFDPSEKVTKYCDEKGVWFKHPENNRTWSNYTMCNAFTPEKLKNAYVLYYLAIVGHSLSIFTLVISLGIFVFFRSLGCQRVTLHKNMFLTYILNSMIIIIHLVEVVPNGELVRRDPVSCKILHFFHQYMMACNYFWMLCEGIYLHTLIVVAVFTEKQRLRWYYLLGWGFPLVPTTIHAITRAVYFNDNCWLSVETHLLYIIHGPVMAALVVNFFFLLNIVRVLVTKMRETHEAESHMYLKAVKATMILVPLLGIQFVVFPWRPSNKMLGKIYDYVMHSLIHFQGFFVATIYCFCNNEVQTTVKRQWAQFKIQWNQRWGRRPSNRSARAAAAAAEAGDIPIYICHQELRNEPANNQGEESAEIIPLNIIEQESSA
T1 sequence (O60896 24-148): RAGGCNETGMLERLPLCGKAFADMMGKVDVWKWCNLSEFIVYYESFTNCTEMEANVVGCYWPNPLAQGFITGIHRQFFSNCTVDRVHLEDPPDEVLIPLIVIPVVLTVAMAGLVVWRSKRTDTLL
Source text: The objective of this assay is to test the potency of the polypeptide derivatives in the present application on amylin and calcitonin receptors in vitro using a luciferase assay.
Using the standard protocol for construction of an amylin receptor/CRE-luc cell line, CHO-K1/Ga15/AMY3 cells (purchased from GenScript, with the calcitonin receptor and the receptor activity modifying peptide (RAMP) constructed already) were transfected with a plasmid containing a luciferase expression cassette driven by multiple copies of cAMP response elements (CREs). The cells were cultured in an F12 medium containing 200 ug/mL Zeocin, 2 ug/mL puromycin, 100 ug/mL hygromycin, and 400 ug/mL G418 to afford a stably transfected amylin receptor/CRE-luc cell line.
To each well of a white 96-well plate was added 50 μL of the tested sample solution at a respective concentration.
The stably transfected amylin receptor/CRE-luc CHO cells were resuspended in the growth medium at a certain density, and 50 μL of the cell suspension was added at a density of about 20,000 cells per well to the white 96-well plate containing the tested sample solution. After incubation of 24 hours at 37° C. and 5% CO2, 100 μL of a Luciferase substrate was added to each well, incubated for 3 minutes, and finally was tested for luminescence on SpectraMax L (Molecular Devices) with the software SoftMax Pro 7.0.3 GxP. A standard curve was plotted using the fluorescent intensities for calculation of EC50.

[3] = Animal study: weight change and accumulated food intake in SD rats after subcutaneous dosing; format: in vivo, SD (Sprague Dawley) rats; conditions: 10 nmol/kg subcutaneous; for effect on body weight of SD rats: FIGS. 1 and 3; for effect on accumulated food intake of SD rats: FIGS. 2 and 4
Source text: SD (Sprague Dawley) rats weighing 200-250 g were used for this study. The rats were received at least 10-14 days before the study began such that they could accommodate to the experimental environment. After arrival, they were exposed to a reversed light/dark cycle (i.e., lights switched off in daytime and on in nighttime) for two weeks and were individually housed for the first week so as to ensure high data accuracy and test sensitivity. Throughout the acclimation and experiment period, the rats had free access to food and water. 5-8 rats were assigned to each testing group for the derivatives and were subcutaneously administered the derivatives at a dose of 10 nmol/kg or a vehicle (20 mM phosphate buffer, PB, pH 7.0), and the dosing timepoint was recorded for each group. After dosing, the rats were put back into cages where they were housed and could have access to food and water. Food consumption and weight change of the rats were recorded online or manually every 24 hours. Percent of weight change=(BWTn−BWT0)/BWT0*100%, wherein BW represented the value of body weight, and T0 and Tn represented the time point of dosing and n hours post dose respectively. Dots in the figures were represented utilizing mean±standard error of the mean (SEM).

[4] = target: T2, calcitonin receptor (hCTR) (Homo sapiens, UniProt P30988); test: Calcitonin receptor agonism, CRE-luciferase assay in stably transfected CHO-K1/CALCR/Ga15 cells; format: cell-based; conditions: for Fold change in activity against hCTR: relative to D1 as benchmark
T2 construct: host or cells: CHO-K1/CALCR/Ga15 cells, further stably transfected with a CRE-luciferase plasmid
T2 sequence (P30988 25-474): T1 sequence (P30988 25-474)

[5] = dog, in vivo, 7 mg
Protocol: Whole blood of the animals was collected pre dose (−10 min) and 2 h, 4 h, and 8 h post dose on Day 1, pre dose (−10 min) and 2 h and 4 h post dose on Day 2-Day 4, and pre dose (−10 min) and 2 h, 4 h, 8 h, 24 h, 48 h, and 72 h post dose on Day 5, and processed into plasma using heparin sodium as an anticoagulant. […] Experimental data was plotted using GraphPad Prism9.3.1.

SMILES	24 h food intake ([1]; 30 nmol/kg single s.c. dose) [g]	24 h weight change ([1]; 30 nmol/kg single s.c. dose) [%]	24 h food intake ([1]; 100 nmol/kg single s.c. dose) [g]	24 h weight change ([1]; 100 nmol/kg single s.c. dose) [%]	purity decrease ([2]; Day 7 of the accelerated testing) [%]	appearance (clarity) of the solution ([2]; Day 26 of the heat accelerated assay)	Purity change on 7 d ([2]; 40° C., Day 7)	EC50 (amylin receptor (hAMY3R)) [pM]	Fold change in activity against hAMY3R (amylin receptor (hAMY3R))	effect on body weight of SD rats [3]	effect on accumulated food intake of SD rats [3]	Concentration change on 7 d ([2]; 40° C., pH about 7.4, 1 mg/mL, Day 7) [%]	Concentration change on 26 d ([2]; 40° C., pH about 7.4, 1 mg/mL)	Purity change on 26 d ([2]; 40° C.) [%]	EC50 ([4]; incubation of 24 hours, Table 4, read-out: EC50, activity against the calcitonin receptor in cells) [pM]	Fold change in activity against hCTR [4]	EC50 ([4]; Table 5 integrated analysis, read-out: hCTR EC50) [pM]	oral bioavailability [5]
CC[C@H](C)[C@H](NC(=O)[C@@H]1CCCN1C(=O)CNC(=O)[C@H](Cc1ccccc1)NC(=O)[C@H](CC(N)=O)NC(=O)[C@H](CC(N)=O)NC(=O)[C@H](CO)NC(=O)[C@H](CO)NC(=O)[C@H](Cc1c[nH]cn1)NC(=O)[C@H](CCCNC(=N)N)NC(=O)[C@H](CC(C)C)NC(=O)[C@H](Cc1ccccc1)NC(=O)[C@H](CCC(=O)O)NC(=O)[C@H](C)NC(=O)[C@H](CC(C)C)NC(=O)[C@H](CCCNC(=N)N)NC(=O)[C@H](CCC(N)=O)NC(=O)[C@@H](NC(=O)[C@H](C)NC(=O)[C@@H]1CSSC[C@H](NC(=O)[C@H](CCCCN)NC(=O)CC[C@H](NC(=O)CCCCCCCCCCCCCCCCCCC(=O)O)C(=O)O)C(=O)N[C@@H](CC(N)=O)C(=O)N[C@@H]([C@@H](C)O)C(=O)N[C@@H](C)C(=O)N[C@@H]([C@@H](C)O)C(=O)N1)[C@@H](C)O)C(=O)N[C@@H](CC(C)C)C(=O)N1CCC[C@H]1C(=O)N1CCC[C@H]1C(=O)N[C@H](C(=O)N[C@@H](CC(N)=O)C(=O)N[C@H](C(=O)NCC(=O)N[C@@H](CO)C(=O)N[C@@H](CC(N)=O)C(=O)N[C@H](C(=O)N1CCC[C@H]1C(N)=O)[C@@H](C)O)C(C)C)[C@@H](C)O [D1, Cagrilintide]	5.250	−6.416	2.100	−9.103	12.73	foreign matters were readily observable	−12.73%	–	–	–	–	–	–	–	–	–	–	–
CC(C)C[C@H](NC(=O)[C@H](CCCNC(=N)N)NC(=O)CNC(=O)[C@H](CC(C)C)NC(=O)[C@@H](NC(=O)[C@H](C)NC(=O)[C@@H](NC(=O)[C@H](CO)NC(=O)[C@H](CC(C)C)NC(=O)[C@H](CCC(N)=O)NC(=O)[C@H](CO)NC(=O)[C@H](C)NC(=O)COCCOCCNC(=O)COCCOCCNC(=O)C[C@H](NC(=O)CCCCCCCCCCCCCCCCCCC(=O)O)C(=O)O)[C@@H](C)O)C(C)C)C(=O)N[C@@H](CO)C(=O)N[C@@H](CC(=O)O)C(=O)N[C@@H](CCC(=O)O)C(=O)N[C@@H](CC(C)C)C(=O)N[C@@H](Cc1c[nH]cn1)C(=O)N[C@@H](CCCNC(=N)N)C(=O)N[C@@H](CC(C)C)C(=O)N[C@@H](CCC(N)=O)C(=O)N[C@@H](CC(=O)O)C(=O)N[C@@H](Cc1ccc(O)cc1)C(=O)N1CCC[C@H]1C(=O)N[C@@H](CCCNC(=N)N)C(=O)N[C@H](C(=O)N[C@@H](CC(=O)O)C(=O)N[C@H](C(=O)NCC(=O)N[C@@H](CO)C(=O)NCC(=O)N[C@@H](CO)C(=O)N1CCC[C@H]1C(N)=O)C(C)C)[C@@H](C)O [M25] ({C20 diacid-βAsp-AEEA-AEEA}-ASQLSTAVLGRLSDELHRLQDYPRTDVGSGSP-NH2)	–	–	–	–	–	–	−2.45%	17	2.118	apparently further reduced	apparently further reduced	−1.222	−2.645%	−5.24	138	0.623	–	–
CC(C)C[C@H](NC(=O)[C@H](CCCNC(=N)N)NC(=O)CNC(=O)[C@H](CC(C)C)NC(=O)[C@@H](NC(=O)[C@H](C)NC(=O)[C@@H](NC(=O)[C@H](CO)NC(=O)[C@H](CC(C)C)NC(=O)[C@H](CCC(N)=O)NC(=O)[C@H](CO)NC(=O)[C@H](C)NC(=O)COCCOCCNC(=O)COCCOCCNC(=O)[C@H]1CC[C@H](CNC(=O)CCCCCCCCCCCCCCCCCCC(=O)O)CC1)[C@@H](C)O)C(C)C)C(=O)N[C@@H](CO)C(=O)N[C@@H](CC(=O)O)C(=O)N[C@@H](CCC(=O)O)C(=O)N[C@@H](CC(C)C)C(=O)N[C@@H](Cc1c[nH]cn1)C(=O)N[C@@H](CCCNC(=N)N)C(=O)N[C@@H](CC(C)C)C(=O)N[C@@H](CCC(N)=O)C(=O)N[C@@H](CC(=O)O)C(=O)N[C@@H](Cc1ccc(O)cc1)C(=O)N1CCC[C@H]1C(=O)N[C@@H](CCCNC(=N)N)C(=O)N[C@H](C(=O)N[C@@H](CC(=O)O)C(=O)N[C@H](C(=O)NCC(=O)N[C@@H](CO)C(=O)NCC(=O)N[C@@H](CO)C(=O)N1CCC[C@H]1C(N)=O)C(C)C)[C@@H](C)O [M27] ({C20 diacid-Trx-AEEA-AEEA}-ASQLSTAVLGRLSDELHRLQDYPRTDVGSGSP-NH2)	–	–	–	–	–	–	No change	–	9.000	apparently further reduced	apparently further reduced	–	−2.286%	−1.27	–	0.161	–	–
CC(C)C[C@H](NC(=O)[C@H](CCCNC(=N)N)NC(=O)CNC(=O)[C@H](CC(C)C)NC(=O)[C@@H](NC(=O)[C@H](C)NC(=O)[C@@H](NC(=O)[C@H](CO)NC(=O)[C@H](CC(C)C)NC(=O)[C@H](CCC(N)=O)NC(=O)[C@H](CO)NC(=O)[C@H](C)NC(=O)COCCOCCNC(=O)COCCOCCNC(=O)C1CCN(C(=O)CCCCCCCCCCCCCCCCCCC(=O)O)CC1)[C@@H](C)O)C(C)C)C(=O)N[C@@H](CO)C(=O)N[C@@H](CC(=O)O)C(=O)N[C@@H](CCC(=O)O)C(=O)N[C@@H](CC(C)C)C(=O)N[C@@H](Cc1c[nH]cn1)C(=O)N[C@@H](CCCNC(=N)N)C(=O)N[C@@H](CC(C)C)C(=O)N[C@@H](CCC(N)=O)C(=O)N[C@@H](CC(=O)O)C(=O)N[C@@H](Cc1ccc(O)cc1)C(=O)N1CCC[C@H]1C(=O)N[C@@H](CCCNC(=N)N)C(=O)N[C@H](C(=O)N[C@@H](CC(=O)O)C(=O)N[C@H](C(=O)NCC(=O)N[C@@H](CO)C(=O)NCC(=O)N[C@@H](CO)C(=O)N1CCC[C@H]1C(N)=O)C(C)C)[C@@H](C)O [M29] ({C20 diacid-Inp-AEEA-AEEA}-ASQLSTAVLGRLSDELHRLQDYPRTDVGSGSP-NH2)	–	–	–	–	–	–	No change	6	6.000	apparently further reduced	apparently further reduced	–	No change (concentration change of less than 1% (denoted as “no change”))	−1.2	–	0.551	156	–
CC[C@H](C)[C@H](NC(=O)[C@@H]1CCCN1C(=O)[C@H](CCCCN)NC(=O)[C@H](CC(C)C)NC(=O)[C@H](CC(N)=O)NC(=O)[C@H](CC(N)=O)NC(=O)[C@H](CO)NC(=O)[C@H](CO)NC(=O)[C@H](Cc1c[nH]cn1)NC(=O)[C@H](CCCNC(=N)N)NC(=O)[C@H](CC(C)C)NC(=O)[C@H](Cc1ccccc1)NC(=O)[C@H](CC(=O)O)NC(=O)[C@H](C)NC(=O)[C@H](CC(C)C)NC(=O)[C@H](CCCNC(=N)N)NC(=O)[C@H](CCC(N)=O)NC(=O)[C@@H](NC(=O)[C@H](C)NC(=O)[C@@H]1CSSC[C@H](NC(=O)[C@H](CCCCN)NC(=O)COCCOCCNC(=O)COCCOCCNC(=O)C[C@H](NC(=O)CCCCCCCCCCCCCCCCCCC(=O)O)C(=O)O)C(=O)N[C@@H](CC(N)=O)C(=O)N[C@@H]([C@@H](C)O)C(=O)N[C@@H](C)C(=O)N[C@@H]([C@@H](C)O)C(=O)N1)[C@@H](C)O)C(=O)N[C@@H](CC(C)C)C(=O)N1CCC[C@H]1C(=O)N1CCC[C@H]1C(=O)N[C@H](C(=O)N[C@@H](CC(N)=O)C(=O)N[C@H](C(=O)NCC(=O)N[C@@H](CO)C(=O)N[C@@H](CC(N)=O)C(=O)N[C@H](C(=O)N1C[C@H](O)C[C@H]1C(N)=O)[C@@H](C)O)C(C)C)[C@@H](C)O [N2] ({C20 diacid-βAsp-AEEA-AEEA}-KCNTATCATQRLADFLRHSSNNLKPILPPTNVGSNT[Hyp]-NH2; disulfide 2-7 (inferred))	–	–	–	–	–	–	–	–	–	–	–	–	–	–	–	–	–	extraordinarily high oral bioavailability
